Assay results taken from US9302999B2, “Substituted triazoles as herbicides” (E. I. DU PONT DE NEMOURS AND COMPANY, priority 2012, dated 2016).
Like-named read-outs stand apart in the source and are kept apart here.

Columns and labels:
Assay type in all cases: in vivo
soybean (Glycine max) = experiment: Test C pre-/postemergence: soybean; conditions: Preemergence
Source text: (§1) Seeds of plant species selected from blackgrass (Alopecurus myosuroides), bromegrass, downy (downy bromegrass, Bromus tectorum), foxtail, green (green foxtail, Setaria viridis), ryegrass, Italian (Italian ryegrass, Lolium multiflorum), winter wheat (Triticum aestivum), wild oat (Avena fatua), galium (catchweed bedstraw, Galium aparine), bermudagrass (Cynodon dactylon), surinam grass (Brachiaria decumbens), cocklebur (common cocklebur, Xanthium strumarium), corn (Zea mays), large crabgrass (Digitaria sanguinalis), woolly cupgrass (Eriochloa villosa), foxtail, giant (giant foxtail, Setaria faberii), goosegrass (Eleusine indica), johnsongrass (Sorghum halepense), kochia (Kochia scoparia), lambsquarters (Chenopodium album), morningglory (Ipomoea coccinea), nightshade (eastern black nightshade, Solanum ptycanthum), nutsedge, yellow (yellow nutsedge, Cyperus esculentus), pigweed (Amaranthus retroflexus), ragweed (common ragweed, Ambrosia elation), soybean (Glycine max), common (oilseed) sunflower (Helianthus annuus), Russian thistle (Salsola kali) and velvetleaf (Abutilon theophrasti) were planted into a blend of loam soil and sand and treated preemergence with test chemicals formulated in a non-phytotoxic solvent mixture which included a surfactant.
(§2) At the same time, plants selected from these crop and weed species and also barley (winter barley, Hordeum vulgare), canarygrass (Phalaris minor), chickweed (common chickweed, Stellaria media) windgrass (Apera spica-venti) and deadnettle (henbit deadnettle, Lamium amplexicaule) were planted in pots containing Redi-Earth® planting medium (Scotts Company, 14111 Scottslawn Road, Marysville, Ohio 43041) comprising spaghnum peat moss, vermiculite, wetting agent and starter nutrients and treated with postemergence applications of test chemicals formulated in the same manner. Plants ranged in height from 2 to 18 cm (1- to 4-leaf stage) for postemergence treatments.
(§3) Treated plants and controls were maintained in a greenhouse for 13 to 15 days, after which time all species were compared to controls and visually evaluated. Plant response ratings, summarized in Table C, are based on a scale of 0 to 100 where 0 is no effect and 100 is complete control. A dash (-) response means no test result.

[1] = tested on: crabgrass, large (large crabgrass, Digitaria sanguinalis); experiment: Test A pre-/postemergence: crabgrass, large; conditions: for pest or weed control at 125 g/ha / pest or weed control at 500 g/ha: Digitaria sanguinalis, 240 h
Method in brief: (§4)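 Visual 0–100 injury ratings (0 no effect, 100 complete control) taken about ten days after treatment, relative to untreated controls. Preemergence treatment was a directed soil spray; postemergence plants were 2–10 cm tall at one- to two-leaf stage. Soil: loam/sand blend.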

[2] = tested on: johnsongrass (Sorghum halepense); experiment: Test C pre-/postemergence: johnsongrass; conditions: Preemergence
Source text: as §1, §2, §3

[3] = tested on: lambsquarters (Chenopodium album); experiment: Test C pre-/postemergence: lambsquarters; conditions: Preemergence
Source text: as §1, §2, §3

[4] = tested on: pigweed (Amaranthus retroflexus); experiment: Test C pre-/postemergence: pigweed; conditions: Preemergence
Source text: as §1, §2, §3

[5] = tested on: velvetleaf (Abutilon theophrasti); experiment: Test A pre-/postemergence: velvetleaf; conditions: for pest or weed control at 125 g/ha / pest or weed control at 500 g/ha: Abutilon theophrasti, 240 h
Method in brief: as §4

corn (Zea mays) = experiment: Test C pre-/postemergence: corn; conditions: Preemergence
Source text: as §1, §2, §3

[6] = tested on: galium (catchweed bedstraw, Galium aparine); experiment: Test C pre-/postemergence: galium; conditions: Preemergence
Source text: as §1, §2, §3

[7] = tested on: foxtail, giant (giant foxtail, Setaria faberii); experiment: Test A pre-/postemergence: foxtail, giant; conditions: for pest or weed control at 125 g/ha / pest or weed control at 500 g/ha: Setaria faberi, 240 h
Method in brief: as §4

wild oat (Avena fatua) = experiment: Test C pre-/postemergence: wild oat; conditions: Preemergence
Source text: as §1, §2, §3

kochia (Kochia scoparia) = experiment: Test C pre-/postemergence: kochia; conditions: Preemergence
Source text: as §1, §2, §3

[8] = 16 g ai/ha, scale 0 (no effect) to 100 (complete control)
[9] = 31 g ai/ha, scale 0 (no effect) to 100 (complete control)
[10] = 62 g ai/ha, scale of 0 to 100, 0 is no effect, 100 is complete control
[11] = 125 g ai/ha, scale 0 to 100, 0 no effect, 100 complete control
[12] = Postemergence, 125 g ai/ha, 0 to 100 scale, 0 is no effect, 100 is complete control
[13] = Postemergence, 500 g ai/ha, 0 to 100 scale, 0 is no effect, 100 is complete control
[14] = Preemergence, 125 g ai/ha, 0 to 100 scale where 0 is no effect and 100 is complete control
[15] = Preemergence, 500 g ai/ha, 0 to 100 scale (0 no effect, 100 complete control)
[16] = post-emergence, Postemergence, 125 g ai/ha, 0 to 100 scale, 0 is no effect, 100 is complete control, read-out: Crabgrass, Large plant response rating
[17] = post-emergence, Postemergence, 500 g ai/ha, visual rating on 0 to 100 scale (0 no effect, 100 complete control), approximately ten days, read-out: Crabgrass, Large plant response rating
[18] = post-emergence, Postemergence, 125 g ai/ha, 0 to 100 scale, 0 is no effect, 100 is complete control, read-out: Velvetleaf plant response rating
[19] = post-emergence, Postemergence, 500 g ai/ha, visual rating on 0 to 100 scale (0 no effect, 100 complete control), approximately ten days, read-out: Velvetleaf plant response rating
[20] = post-emergence, Postemergence, 125 g ai/ha, 0 to 100 scale, 0 is no effect, 100 is complete control, read-out: Foxtail, Giant plant response rating
[21] = post-emergence, Postemergence, 500 g ai/ha, visual rating on 0 to 100 scale (0 no effect, 100 complete control), approximately ten days, read-out: Foxtail, Giant plant response rating
[22] = 31 g ai/ha, scale of 0 to 100, 0 is no effect, 100 is complete control
[23] = 250 g ai/ha, scale 0 to 100, 0 no effect, 100 complete control
[24] = Postemergence, 500 g ai/ha, visual rating on 0 to 100 scale (0 no effect, 100 complete control), approximately ten days

CCOc1nn(-c2ccc(Br)cc2)nc1Cc1ccnc(C(F)(F)F)c1 [Compound 189]
Plant response rating, Soybean (soybean (Glycine max); [8]): 5
Plant response rating, Soybean (soybean (Glycine max); [9]): 5
Plant response rating, Soybean (soybean (Glycine max); [10]): 15
Plant response rating, Soybean (soybean (Glycine max); [11]): 25
Plant response rating, Crabgrass, Large [1, 12]: 80
Crabgrass, Large plant response rating [1, 13]: 90
Plant response rating, Crabgrass, Large [1, 14]: 100
Plant response rating, Crabgrass, Large [1, 15]: 100
Plant response rating, Johnsongrass [2, 8]: 30
Plant response rating, Johnsongrass [2, 9]: 50
Plant response rating, Johnsongrass [2, 10]: 85
Plant response rating, Johnsongrass [2, 11]: 85
Plant response rating, Lambsquarters [3, 8]: 45
Plant response rating, Lambsquarters [3, 9]: 85
Plant response rating, Lambsquarters [3, 10]: 90
Plant response rating, Lambsquarters [3, 11]: 90
Plant response rating, Pigweed [4, 8]: 85
Plant response rating, Pigweed [4, 9]: 98
Plant response rating, Pigweed [4, 10]: 100
Plant response rating, Pigweed [4, 11]: 100
Plant response rating, Velvetleaf [5, 12]: 70
Velvetleaf plant response rating [5, 13]: 90
Plant response rating, Velvetleaf [5, 14]: 20
Plant response rating, Velvetleaf [5, 15]: 60
Plant response rating, Corn (corn (Zea mays); [8]): 5
Plant response rating, Corn (corn (Zea mays); [9]): 5
Plant response rating, Corn (corn (Zea mays); [10]): 15
Plant response rating, Corn (corn (Zea mays); [11]): 20
Plant response rating, Galium [6, 8]: 80
Plant response rating, Galium [6, 9]: 80
Plant response rating, Galium [6, 10]: 80
Plant response rating, Galium [6, 11]: 95
Plant response rating, Foxtail, Giant [7, 12]: 90
Foxtail, Giant plant response rating [7, 13]: 90
Plant response rating, Foxtail, Giant [7, 14]: 100
Plant response rating, Foxtail, Giant [7, 15]: 100

CCc1nn(-c2ccc(C(F)(F)F)cc2)nc1Oc1cccc(OC(F)(F)F)c1 [Compound 125, 4-ethyl-5-[3-(trifluoromethoxy)phenoxy]-2-[4-(trifluoromethyl)phenyl]-2H-1,2,3-triazole]
pest or weed control at 125 g/ha [1, 16]: 60%
pest or weed control at 500 g/ha [1, 17]: 90%
pest or weed control at 125 g/ha ([1]; pre-emergence, Preemergence, 125 g ai/ha, 0 to 100 scale where 0 is no effect and 100 is complete control, read-out: Plant response rating, Crabgrass, Large): 80%
pest or weed control at 500 g/ha ([1]; pre-emergence, Preemergence, 500 g ai/ha, 0 to 100 scale (0 no effect, 100 complete control), read-out: Plant response rating, Crabgrass, Large): 90%
pest or weed control at 125 g/ha [5, 18]: 30%
pest or weed control at 500 g/ha [5, 19]: 70%
pest or weed control at 125 g/ha ([5]; pre-emergence, Preemergence, 125 g ai/ha, 0 to 100 scale where 0 is no effect and 100 is complete control, read-out: Plant response rating, Velvetleaf): 0%
pest or weed control at 500 g/ha ([5]; pre-emergence, Preemergence, 500 g ai/ha, 0 to 100 scale (0 no effect, 100 complete control), read-out: Plant response rating, Velvetleaf): 50%
pest or weed control at 125 g/ha [7, 20]: 50%
pest or weed control at 500 g/ha [7, 21]: 60%
pest or weed control at 125 g/ha ([7]; pre-emergence, Preemergence, 125 g ai/ha, 0 to 100 scale where 0 is no effect and 100 is complete control, read-out: Plant response rating, Foxtail, Giant): 80%
pest or weed control at 500 g/ha ([7]; pre-emergence, Preemergence, 500 g ai/ha, 0 to 100 scale (0 no effect, 100 complete control), read-out: Plant response rating, Foxtail, Giant): 90%

Cc1nn(-c2ccc(F)c(C(F)(F)F)c2)nc1Oc1ccnc(C(F)(F)F)c1 [Compound 147]
Plant response rating, Oat, Wild (wild oat (Avena fatua); [22]): 60
Plant response rating, Oat, Wild (wild oat (Avena fatua); [10]): 70
Plant response rating, Oat, Wild (wild oat (Avena fatua); [11]): 85
Plant response rating, Oat, Wild (wild oat (Avena fatua); [23]): 95
Plant response rating, Soybean (soybean (Glycine max); [10]): 20
Plant response rating, Soybean (soybean (Glycine max); [11]): 20
Plant response rating, Soybean (soybean (Glycine max); [23]): 35
Crabgrass, Large plant response rating [1, 12]: 80
Crabgrass, Large plant response rating [1, 24]: 90
Plant response rating, Crabgrass, Large [1, 14]: 100
Plant response rating, Crabgrass, Large [1, 15]: 100
Plant response rating, Johnsongrass [2, 22]: 40
Plant response rating, Johnsongrass [2, 10]: 55
Plant response rating, Johnsongrass [2, 11]: 95
Plant response rating, Johnsongrass [2, 23]: 98
Plant response rating, Lambsquarters [3, 22]: 35
Plant response rating, Lambsquarters [3, 10]: 45
Plant response rating, Lambsquarters [3, 11]: 80
Plant response rating, Lambsquarters [3, 23]: 80
Plant response rating, Pigweed [4, 22]: 100
Plant response rating, Pigweed [4, 10]: 100
Plant response rating, Pigweed [4, 11]: 100
Plant response rating, Pigweed [4, 23]: 100
Plant response rating, Velvetleaf [5, 12]: 50
Velvetleaf plant response rating [5, 24]: 90
Plant response rating, Velvetleaf [5, 14]: 20
Plant response rating, Velvetleaf [5, 15]: 50
Plant response rating, Corn (corn (Zea mays); [22]): 10
Plant response rating, Corn (corn (Zea mays); [10]): 10
Plant response rating, Corn (corn (Zea mays); [11]): 25
Plant response rating, Corn (corn (Zea mays); [23]): 35
Plant response rating, Galium [6, 22]: 100
Plant response rating, Galium [6, 10]: 100
Plant response rating, Galium [6, 11]: 100
Plant response rating, Galium [6, 23]: 100
Foxtail, Giant plant response rating [7, 12]: 70
Foxtail, Giant plant response rating [7, 24]: 80
Plant response rating, Foxtail, Giant [7, 14]: 100
Plant response rating, Foxtail, Giant [7, 15]: 100
Plant response rating, Kochia (kochia (Kochia scoparia); [22]): 35
Plant response rating, Kochia (kochia (Kochia scoparia); [10]): 40
Plant response rating, Kochia (kochia (Kochia scoparia); [11]): 80
Plant response rating, Kochia (kochia (Kochia scoparia); [23]): 85

COc1nn(-c2ccc(C(F)(F)F)cc2)nc1Cn1ccc(C(F)(F)F)n1 [Compound 17, 4-methoxy-2-[4-(trifluoromethyl)phenyl]-5-[[3-(trifluoromethyl)-1H-pyrazol-1-yl]methyl]-2H-1,2,3-triazole]
pest or weed control at 125 g/ha [1, 16]: 90%
pest or weed control at 500 g/ha [1, 17]: 90%
pest or weed control at 125 g/ha ([1]; pre-emergence, Preemergence, 125 g ai/ha, 0 to 100 scale (0 no effect, 100 complete control), read-out: Plant response rating, Crabgrass, Large): 100%
pest or weed control at 500 g/ha ([1]; pre-emergence, Preemergence, 500 g ai/ha, 0 to 100 scale, 0 is no effect, 100 is complete control, read-out: Plant response rating, Crabgrass, Large): 100%
pest or weed control at 125 g/ha [5, 18]: 90%
pest or weed control at 500 g/ha [5, 19]: 100%
pest or weed control at 125 g/ha ([5]; pre-emergence, Preemergence, 125 g ai/ha, 0 to 100 scale (0 no effect, 100 complete control), read-out: Plant response rating, Velvetleaf): 30%
pest or weed control at 500 g/ha ([5]; pre-emergence, Preemergence, 500 g ai/ha, 0 to 100 scale, 0 is no effect, 100 is complete control, read-out: Plant response rating, Velvetleaf): 40%
pest or weed control at 125 g/ha [7, 20]: 60%
pest or weed control at 500 g/ha [7, 21]: 80%
pest or weed control at 125 g/ha ([7]; pre-emergence, Preemergence, 125 g ai/ha, 0 to 100 scale (0 no effect, 100 complete control), read-out: Plant response rating, Foxtail, Giant): 90%
pest or weed control at 500 g/ha ([7]; pre-emergence, Preemergence, 500 g ai/ha, 0 to 100 scale, 0 is no effect, 100 is complete control, read-out: Plant response rating, Foxtail, Giant): 100%
